Test results taken from patent EP4670717A1, “PYRROLIDINE-FUSED MYRTANOL DERIVATIVES AS INHIBITORS AND/OR DEGRADERS OF IDO1 UND USE THEREOF” (Max-Planck-Gesellschaft zur Förderung der Wissenschaften …, priority 2024, dated 2025).

Molecular target: T1, IDO1 (Homo sapiens, UniProt P14902)
T1 construct: BxPC3 cells were seeded in phenol red-free RPMI 1640 medium; endogenous in cells; host or cells: BxPC3 cells stimulated with IFN-γ (50 ng/mL)
Assay: Kyn assay in BxPC-3 cells (Kyn levels after IFN-γ and Trp);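 also: kyn levels expressed relative to DMSO-treated control cells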
Assay type: cell-based
Details: BxPC-3 cells incubated with IFN-γ, Trp and the compounds for 48 h; read-out: Kyn assay IC50 ± SD
Method: BxPC3 cells were seeded in phenol red-free RPMI 1640 medium in 1536-well or 384-well plates (Greiner #782086, Corning #3770) 24 h prior to the addition of compounds, IFN-γ (50 ng/mL, PeproTech) and L-Trp (380 µM, Sigmal-Aldrich). After 48 h of incubation, first cell viability was accessed by the addition of Hoechst-33342. Afterwards, trichloroacetic acid (TCA, Sigma-Aldrich) was added to a final concentration of 7 % and incubated for 10 min prior to a centrifugation step of 10 min at 1620 × g. Kyn levels were determined by means of the Kyn sensor^7 at a final concentration of 17.5 µM in sensor buffer (50 mM H3PO4 and 120 mM NaCl (pH=1)). Fluorescence intensity (excitation: 535 nm, emission: 595 nm) was measured using a Spectramax Paradigm reader (Molecular Devices). Data were normalized to the values for cells that were treated with DMSO.
For the manual assay, BxPC3 or SKOV3 cells were seeded in clear 96-well or 384-well plates, respectively, 24 h prior to compound treatment and IFN-γ (50 or 5 ng/mL, respectively) and L-Trp (380 µM) addition as described before.^7 48 h after treatment, TCA was added and Kyn levels were detected by means of 2 % w/v of p-DMAB (Ehrlich reagent) in acetic acid as described by Braun et al^29. The absorbance of the Ehrlich reagent was detected at 492 nm and at 650 nm as background control was measured on Spark® multimode microplate plate reader (Tecan, Austria). Kyn levels were determined by subtracting the absorbance value at 650 nm and presented relative to the DMSO control. Dose-response curves and IC50 values were generated and fitted with GraphPad Prism 6.0 (GraphPad software, USA) using four-parameter variable slope non-linear regression curve fit.
Cells were incubated with IFN-γ, Trp and the compounds for 48 h prior to detection of Kyn levels.

T1 sequence (P14902 whole entry): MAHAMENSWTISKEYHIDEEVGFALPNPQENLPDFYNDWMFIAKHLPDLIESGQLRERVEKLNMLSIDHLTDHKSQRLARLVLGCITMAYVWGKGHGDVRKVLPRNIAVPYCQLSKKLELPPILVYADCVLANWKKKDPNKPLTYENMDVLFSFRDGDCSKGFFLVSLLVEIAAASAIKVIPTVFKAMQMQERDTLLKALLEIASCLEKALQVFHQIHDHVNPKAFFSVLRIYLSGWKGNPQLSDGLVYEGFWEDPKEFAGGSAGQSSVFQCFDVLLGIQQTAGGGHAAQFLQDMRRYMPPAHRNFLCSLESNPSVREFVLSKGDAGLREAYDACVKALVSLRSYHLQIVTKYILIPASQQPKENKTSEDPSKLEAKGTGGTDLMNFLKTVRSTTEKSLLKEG

IC50 [µM]	Compound
5 to 10	Cc1ccc(NC(=O)OC[C@]23CN(S(=O)(=O)C4CCCCC4)C[C@H]2C[C@H]2C[C@@H]3C2(C)C)cc1 [compound 31, ((3aS,4R,6R,7aS)-2-(cyclohexylsulfonyl)-5,5-dimethyloctahydro-3aH-4,6-methanoisoindol-3a-yl)methyl p-tolylcarbamate]
1 to 5	Cc1ccc(NC(=O)OC[C@]23CN(S(=O)(=O)c4ccc(C(F)(F)F)cc4)C[C@H]2C[C@H]2C[C@@H]3C2(C)C)cc1 [compound 32, ((3aS,4R,6R,7aS)-5,5-dimethyl-2-((4-(trifluoromethyl)phenyl)sulfonyl)octahydro-3aH-4,6-methanoisoindol-3a-yl)methyl p-tolylcarbamate]
1 to 5	Cc1ccc(NC(=O)OC[C@]23CN(S(=O)(=O)c4ccc(OC(F)(F)F)cc4)C[C@H]2C[C@H]2C[C@@H]3C2(C)C)cc1 [compound 34, ((3aS,4R,6R,7aS)-5,5-dimethyl-2-((4-(trifluoromethoxy)phenyl)sulfonyl)octahydro-3aH-4,6-methanoisoindol-3a-yl)methyl p-tolylcarbamate]
1 to 5	Cc1ccc(NC(=O)OC[C@]23CN(S(=O)(=O)c4ccc(C5(C(F)(F)F)N=N5)cc4)C[C@H]2C[C@H]2C[C@@H]3C2(C)C)cc1 [compound 35, ((3aS,4R,6R,7aS)-5,5-dimethyl-2-((4-(3-(trifluoromethyl)-3H-diazirin-3-yl)phenyl)sulfonyl)octahydro-3aH-4,6-methanoisoindol-3a-yl)methyl p-tolylcarbamate]
5 to 10	Cc1ccc(NC(=O)OC[C@]23CN(S(=O)(=O)c4ccccc4Br)C[C@H]2C[C@H]2C[C@@H]3C2(C)C)cc1 [compound 36, ((3aS,4R,6R,7aS)-2-((2-bromophenyl)sulfonyl)-5,5-dimethyloctahydro-3aH-4,6-methanoisoindol-3a-yl)methyl p-tolylcarbamate]
1 to 5	CC1(C)[C@H]2C[C@@H]3CN(S(=O)(=O)c4ccccc4)C[C@]3(COC(=O)Nc3ccc(I)cc3)[C@@H]1C2 [compound 37, ((3aS,4R,6R,7aS)-5,5-dimethyl-2-(phenylsulfonyl)octahydro-3aH-4,6-methanoisoindol-3a-yl)methyl (4-iodophenyl)carbamate]
0.2 to 1	CC1(C)[C@H]2C[C@@H]3CN(S(=O)(=O)c4ccc5ccccc5c4)C[C@]3(COC(=O)Nc3ccc(I)cc3)[C@@H]1C2 [compound 38, ((3aS,4R,6R,7aS)-5,5-dimethyl-2-(naphthalen-2-ylsulfonyl)octahydro-3aH-4,6-methanoisoindol-3a-yl)methyl (4-iodophenyl)carbamate]
0.2 to 1	Cc1ccccc1S(=O)(=O)N1C[C@H]2C[C@H]3C[C@H](C3(C)C)[C@@]2(COC(=O)Nc2ccc(I)cc2)C1 [compound 39, ((3aS,4R,6R,7aS)-5,5-dimethyl-2-(o-tolylsulfonyl)octahydro-3aH-4,6-methanoisoindol-3a-yl)methyl (4-iodophenyl)carbamate]
1 to 5	Cc1cccc(S(=O)(=O)N2C[C@H]3C[C@H]4C[C@H](C4(C)C)[C@@]3(COC(=O)Nc3ccc(I)cc3)C2)c1 [compound 40, ((3aS,4R,6R,7aS)-5,5-dimethyl-2-(m-tolylsulfonyl)octahydro-3aH-4,6-methanoisoindol-3a-yl)methyl (4-iodophenyl)carbamate]
0.2 to 1	Cc1ccc(S(=O)(=O)N2C[C@H]3C[C@H]4C[C@H](C4(C)C)[C@@]3(COC(=O)Nc3ccc(I)cc3)C2)cc1 [compound 41, ((3aS,4R,6R,7aS)-5,5-dimethyl-2-tosyloctahydro-3aH-4,6-methanoisoindol-3a-yl)methyl (4-iodophenyl)carbamate]
< 0.2	CC(C)c1ccc(S(=O)(=O)N2C[C@H]3C[C@H]4C[C@H](C4(C)C)[C@@]3(COC(=O)Nc3ccc(I)cc3)C2)cc1 [compound 43, ((3aS,4R,6R,7aS)-2-((4-isopropylphenyl)sulfonyl)-5,5-dimethyloctahydro-3aH-4,6-methanoisoindol-3a-yl)methyl (4-iodophenyl)carbamate]
0.2 to 1	CC1(C)[C@H]2C[C@@H]3CN(S(=O)(=O)c4ccc(-c5ccccc5)cc4)C[C@]3(COC(=O)Nc3ccc(I)cc3)[C@@H]1C2 [compound 44, ((3aS,4R,6R,7aS)-2-([1,1'-biphenyl]-4-ylsulfonyl)-5,5-dimethyloctahydro-3aH-4,6-methanoisoindol-3a-yl)methyl (4-iodophenyl)carbamate]
1 to 5	CC1(C)[C@H]2C[C@@H]3CN(S(=O)(=O)c4ccc(C5CCCCC5)cc4)C[C@]3(COC(=O)Nc3ccc(I)cc3)[C@@H]1C2 [compound 45, ((3aS,4R,6R,7aS)-2-((4-cyclohexylphenyl)sulfonyl)-5,5-dimethyloctahydro-3aH-4,6-methanoisoindol-3a-yl)methyl (4-iodophenyl)carbamate]
0.2 to 1	CC(C)(C)Cc1ccc(S(=O)(=O)N2C[C@H]3C[C@H]4C[C@H](C4(C)C)[C@@]3(COC(=O)Nc3ccc(I)cc3)C2)cc1 [compound 47, ((3aS,4R,6R,7aS)-5,5-dimethyl-2-((4-neopentylphenyl)sulfonyl)octahydro-3aH-4,6-methanoisoindol-3a-yl)methyl (4-iodophenyl)carbamate]

The next lines start with the compound.

Compound	IC50 [µM]
CCc1ccc(NC(=O)OC[C@]23CN(S(=O)(=O)c4ccc(C(C)(C)C)cc4)C[C@H]2C[C@H]2C[C@@H]3C2(C)C)cc1 [compound 2, ((3aS,4R,6R,7aS)-2-((4-(tert-butyl)phenyl)sulfonyl)-5,5-dimethyloctahydro-3aH-4,6-methanoisoindol-3a-yl)methyl (4-ethylphenyl)carbamate]	1 to 5
CC(C)(C)c1ccc(S(=O)(=O)N2C[C@H]3C[C@H]4C[C@H](C4(C)C)[C@@]3(COC(=O)Nc3ccccc3)C2)cc1 [compound 6, ((3aS,4R,6R,7aS)-2-((4-(tert-butyl)phenyl)sulfonyl)-5,5-dimethyloctahydro-3aH-4,6-methanoisoindol-3a-yl)methyl phenylcarbamate]	5 to 10
Cc1ccc(NC(=O)OC[C@]23CN(S(=O)(=O)c4ccc(C(C)(C)C)cc4)C[C@H]2C[C@H]2C[C@@H]3C2(C)C)c(C)c1 [compound 7, ((3aS,4R,6R,7aS)-2-((4-(tert-butyl)phenyl)sulfonyl)-5,5-dimethyloctahydro-3aH-4,6-methanoisoindol-3a-yl)methyl (2,4-dimethylphenyl)carbamate]	1 to 5
CC(C)(C)c1ccc(S(=O)(=O)N2C[C@H]3C[C@H]4C[C@H](C4(C)C)[C@@]3(COC(=O)Nc3ccc(Cl)cc3)C2)cc1 [compound 9, ((3aS,4R,6R,7aS)-2-((4-(tert-butyl)phenyl)sulfonyl)-5,5-dimethyloctahydro-3aH-4,6-methanoisoindol-3a-yl)methyl (4-chlorophenyl)carbamate]	0.2 to 1
CC(C)(C)c1ccc(S(=O)(=O)N2C[C@H]3C[C@H]4C[C@H](C4(C)C)[C@@]3(COC(=O)Nc3ccc(Br)cc3)C2)cc1 [compound 10, ((3aS,4R,6R,7aS)-2-((4-(tert-butyl)phenyl)sulfonyl)-5,5-dimethyloctahydro-3aH-4,6-methanoisoindol-3a-yl)methyl (4-bromophenyl)carbamate]	0.2 to 1
CC(C)(C)c1ccc(S(=O)(=O)N2C[C@H]3C[C@H]4C[C@H](C4(C)C)[C@@]3(COC(=O)Nc3ccccc3I)C2)cc1 [compound 12, ((3aS,4R,6R,7aS)-2-((4-(tert-butyl)phenyl)sulfonyl)-5,5-dimethyloctahydro-3aH-4,6-methanoisoindol-3a-yl)methyl (2-iodophenyl)carbamate]	0.2 to 1
CC(C)(C)c1ccc(S(=O)(=O)N2C[C@H]3C[C@H]4C[C@H](C4(C)C)[C@@]3(COC(=O)Nc3ccccc3Br)C2)cc1 [compound 13, ((3aS,4R,6R,7aS)-2-((4-(tert-butyl)phenyl)sulfonyl)-5,5-dimethyloctahydro-3aH-4,6-methanoisoindol-3a-yl)methyl (2-bromophenyl)carbamate]	0.2 to 1
CC(C)(C)c1ccc(S(=O)(=O)N2C[C@H]3C[C@H]4C[C@H](C4(C)C)[C@@]3(COC(=O)Nc3cccc(Br)c3)C2)cc1 [compound 14, ((3aS,4R,6R,7aS)-2-((4-(tert-butyl)phenyl)sulfonyl)-5,5-dimethyloctahydro-3aH-4,6-methanoisoindol-3a-yl)methyl (3-bromophenyl)carbamate]	5 to 10
CC(C)(C)c1ccc(S(=O)(=O)N2C[C@H]3C[C@H]4C[C@H](C4(C)C)[C@@]3(COC(=O)Nc3ccc(C#CCCO)cc3)C2)cc1 [compound 18, ((3aS,4R,6R,7aS)-2-((4-(tert-butyl)phenyl)sulfonyl)-5,5-dimethyloctahydro-3aH-4,6-methanoisoindol-3a-yl)methyl (4-(4-hydroxybut-1-yn-1-yl)phenyl)carbamate]	1 to 5
COc1ccc(NC(=O)OC[C@]23CN(S(=O)(=O)c4ccc(C(C)(C)C)cc4)C[C@H]2C[C@H]2C[C@@H]3C2(C)C)cc1 [compound 20, ((3aS,4R,6R,7aS)-2-((4-(tert-butyl)phenyl)sulfonyl)-5,5-dimethyloctahydro-3aH-4,6-methanoisoindol-3a-yl)methyl (4-methoxyphenyl)carbamate]	1 to 5
CC(C)(C)c1ccc(S(=O)(=O)N2C[C@H]3C[C@H]4C[C@H](C4(C)C)[C@@]3(COC(=O)Nc3ccc(C#N)cc3)C2)cc1 [compound 23, ((3aS,4R,6R,7aS)-2-((4-(tert-butyl)phenyl)sulfonyl)-5,5-dimethyloctahydro-3aH-4,6-methanoisoindol-3a-yl)methyl (4-cyanophenyl)carbamate]	1 to 5
Cc1ccc(NC(=O)OC[C@]23CN(S(=O)(=O)C(C)C)C[C@H]2C[C@H]2C[C@@H]3C2(C)C)cc1 [compound 30, ((3aS,4R,6R,7aS)-2-(isopropylsulfonyl)-5,5-dimethyloctahydro-3aH-4,6-methanoisoindol-3a-yl) methyl p-tolylcarbamate]	1 to 5
CC1(C)CCC(C)(C)c2cc(S(=O)(=O)N3C[C@H]4C[C@H]5C[C@H](C5(C)C)[C@@]4(COC(=O)Nc4ccc(I)cc4)C3)ccc21 [compound 46]	0.2 to 1
